Experiments:
[1] = biological target: T1, porcine pancreatic lipase (PPL) (Sus scrofa, UniProt P00591); details: pig, 3 h, pH 11.5
T1 sequence (P00591 1-450): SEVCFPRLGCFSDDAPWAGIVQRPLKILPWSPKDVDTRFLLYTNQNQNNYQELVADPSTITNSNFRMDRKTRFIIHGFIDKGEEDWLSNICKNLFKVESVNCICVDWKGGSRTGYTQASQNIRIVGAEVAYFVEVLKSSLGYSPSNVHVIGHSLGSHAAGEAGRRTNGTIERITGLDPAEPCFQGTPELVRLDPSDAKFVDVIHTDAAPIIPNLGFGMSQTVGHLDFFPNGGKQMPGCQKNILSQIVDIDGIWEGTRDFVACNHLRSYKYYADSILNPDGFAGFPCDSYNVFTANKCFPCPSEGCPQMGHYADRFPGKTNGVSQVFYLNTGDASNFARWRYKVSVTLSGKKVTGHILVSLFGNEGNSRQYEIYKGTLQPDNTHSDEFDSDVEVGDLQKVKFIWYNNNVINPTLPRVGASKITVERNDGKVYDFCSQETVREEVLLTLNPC
T1 sequence (P02703 23-112 partner): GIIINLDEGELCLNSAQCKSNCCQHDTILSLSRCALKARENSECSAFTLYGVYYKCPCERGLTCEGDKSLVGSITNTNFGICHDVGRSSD
Source text: Because many fatty acids are only partially ionised at pH 6.8, direct titration gives only partial picture of the extent of lipid digestion, instead back titration to pH 11.5 or GC-FAME analysis is required to estimate the full extent of digestion.

[2] = biological target: T1, porcine pancreatic lipase (PPL); assay: In vitro digestion, simulated intestinal fluid (SIF) model, pH-stat; format: in vitro ADME; parameters: by porcine pancreatic lipase (from pancreatin); purchased SIGMA-ALDRICH P7585; host or cells: porcine pancreas extract (pancreatin); details: SIF alone; emulsion with 200 mg fat, pH 6.8, 37° C.
[3] = system: rabbit gastric lipase (RGL) followed by porcine pancreatic lipase (PPL); assay: In vitro sequential digestion, SGF followed by SIF, pH-stat; format: in vitro ADME

extent of digestion [1]: 101.5±0.9% | initial (maximal) rate of lipolysis [2]: 223 ± 59 µmol/min | initial lipolysis rate in SIF compartment ([3]; SGF-SIF digestion (90 min SGF pre-exposure, pH 5.5)): 44.1 ± 8.8 µmol/min | hydrolysis in the stomach / extent of gastric lipolysis ([3]; in words, gastric compartment of the model): extensive hydrolysis in the stomach | lipolysis by gastric lipase ([3]; indicated by decreased total fatty acid release in SIF after RGL pre-exposure): ~60%
SMILES: CCCC(=O)OCC(COC(=O)CCC)OC(=O)CCC [tributyrin]
